Assay results taken from paper PMC6983058, “Biologically Active Echinulin-Related Indolediketopiperazines from the Marine Sediment-Derived Fungus Aspergillus niveoglaucus” (Molecules, 2019).
Entries after “also recorded” stand apart in the source; their conditions may differ. Where two headings read alike, the source gives them in different places.

Assays:
[1] = DPPH-radical scavenger assay (cell-free); format: biochemical; conditions: MeOH, 30 min
Description: The DPPH radical scavenging activities of the compounds were tested as described.
The compounds were dissolved in MeOH, and the solutions (120 µL) were dispensed into wells of a 96-well microplate. In all, 30 µL of the DPPH (Sigma-Aldrich, Steinheim, Germany) solution in MeOH (7.5 × 10^−3 M) was added to each well. The concentrations of the test compounds in the mixtures were 10 and 100 µM. The mixtures were shaken and left to stand for 30 min, and the absorbance of the resulting solutions was measured at 520 nm with a microplate reader MultiscanFC (ThermoScientific, Waltham, MA, USA). The radical scavenging activities of the compounds at 100 µM are presented as % relative to the control (MeOH alone), and the concentration scavenging 50% of the DPPH radical (EC50) was calculated for each compound.

Neuro-2a cells [2] = assay: 6-OHDA-induced cell model of Parkinson's disease (viability, MTT); format: cell-based, murine; conditions: 10 µM compound 1 h pretreatment, 6-OHDA 50 µM, 24 h
[3] = MTT cytotoxicity assay, Neuro-2a cells; conditions: mouse
Description: (§3) Neuro-2a cells were cultured in DMEM medium containing 10% fetal bovine serum (Biolot, St. Petersburg, Russia) and 1% penicillin/streptomycin (Invitrogen, Carlsbad, CA, USA). Cells were incubated at 37 °C in a humidified atmosphere containing 5% (v/v) CO2 [43].
(§4) The in vitro cytotoxicities of the individual substances were evaluated using an MTT (3-(4,5-dimethylthiazol-2-yl)-2,5-diphenyltetrazolium bromide) assay, which was performed according to the manufacturer’s instructions (Sigma-Aldrich, St. Louis, MO, USA). […] Docetaxel was used as a reference substance.

Neuro-2a cells [4] = assay: Rotenone-induced cell model of Parkinson's disease (viability, MTT); conditions: 10 µM compound 1 h pretreatment, rotenone 10 µM, 24 h
Description: (§5) Neuroblastoma Neuro-2a line cells (1 × 10^4 cells/well) were treated with the test compounds at concentrations of 10 µM for 1 h, and then the neurotoxins at different concentrations were added to the neuroblastoma cell suspensions [40]. Rotenone (Sigma-Aldrich, USA) was used at 10 µM. Paraquat (Sigma-Aldrich, USA) was used at 500 µM. […] Cells incubated without neurotoxins and the test compounds and cells incubated with neurotoxins only were used as positive and negative controls, respectively. After 24 h of incubation, the cell viabilities were measured using the MTT method.

Neuro-2a cells [5] = assay: Paraquat-induced cell model of Parkinson's disease (viability, MTT); conditions: 10 µM compound 1 h pretreatment, paraquat 500 µM, 24 h
Description: as §5

[6] = cell-free, cited from earlier work; for IC50: read-out: DPPH Scavenger Activity IC50
[7] = MTT cytotoxicity assay, 22Rv1 cells; format: cell-based; conditions: human
Description: (§1) 22Rv1, PC-3, and LNCaP cell lines were cultured according to the manufacturer’s instructions in 10% FBS/RPMI media (Invitrogen, Carlsbad, CA, USA). Cells were continuously kept in culture for a maximum of 3 months and were routinely inspected microscopically for stable phenotypes and regularly checked for contamination with mycoplasma. Cell line authentication was performed by DSMZ (Braunschweig, Germany) using highly polymorphic short tandem repeat loci.
(§2) Docetaxel was used as a reference substance.

[8] = MTT cytotoxicity assay, PC-3 cells; format: cell-based; conditions: human
Description: as §1, §2

[9] = MTT cytotoxicity assay, LNCaP cells; format: cell-based; conditions: human
Description: as §1, §2

Neuro-2a cells [10] = assay: ROS level in paraquat-treated Neuro-2a cells (H2DCF-DA); format: cell-based, murine; conditions: 10 µM compound 1 h, then paraquat 500 µM 1 h; neurotoxin alone 148.4 ± 6.9
Description: Cell suspensions (1×10^4 cells/well) were incubated with solutions of the test compound (10 µM) for 1 h. Then, 6-hydroxydopamine solution (Sigma-Aldrich, 50 µM) or paraquat solution (Sigma-Aldrich, 500 µM) were added to each well. After 30 min (for 6-hydroxydopamine) or 1 h (for paraquat), 20 μL of 2,7-dichlorodihydrofluorescein diacetate (H2DCF-DA) solution (Molecular Probes, final concentration […]) was added to each well, and the microplate was incubated for an additional 10 min at 37 °C. The intensity of dichlorofluorescin fluorescence was measured at λex = 485 nm and λem = 518 nm. The results are presented as % relative to the control.

[11] = molecular target: T1, urease from Canavalia ensiformis (Canavalia ensiformis, UniProt P07374); assay: Cell-free urease inhibition assay (indophenol method); format: biochemical
T1 construct: purchased Sigma
T1 sequence (P07374 whole entry, looked up): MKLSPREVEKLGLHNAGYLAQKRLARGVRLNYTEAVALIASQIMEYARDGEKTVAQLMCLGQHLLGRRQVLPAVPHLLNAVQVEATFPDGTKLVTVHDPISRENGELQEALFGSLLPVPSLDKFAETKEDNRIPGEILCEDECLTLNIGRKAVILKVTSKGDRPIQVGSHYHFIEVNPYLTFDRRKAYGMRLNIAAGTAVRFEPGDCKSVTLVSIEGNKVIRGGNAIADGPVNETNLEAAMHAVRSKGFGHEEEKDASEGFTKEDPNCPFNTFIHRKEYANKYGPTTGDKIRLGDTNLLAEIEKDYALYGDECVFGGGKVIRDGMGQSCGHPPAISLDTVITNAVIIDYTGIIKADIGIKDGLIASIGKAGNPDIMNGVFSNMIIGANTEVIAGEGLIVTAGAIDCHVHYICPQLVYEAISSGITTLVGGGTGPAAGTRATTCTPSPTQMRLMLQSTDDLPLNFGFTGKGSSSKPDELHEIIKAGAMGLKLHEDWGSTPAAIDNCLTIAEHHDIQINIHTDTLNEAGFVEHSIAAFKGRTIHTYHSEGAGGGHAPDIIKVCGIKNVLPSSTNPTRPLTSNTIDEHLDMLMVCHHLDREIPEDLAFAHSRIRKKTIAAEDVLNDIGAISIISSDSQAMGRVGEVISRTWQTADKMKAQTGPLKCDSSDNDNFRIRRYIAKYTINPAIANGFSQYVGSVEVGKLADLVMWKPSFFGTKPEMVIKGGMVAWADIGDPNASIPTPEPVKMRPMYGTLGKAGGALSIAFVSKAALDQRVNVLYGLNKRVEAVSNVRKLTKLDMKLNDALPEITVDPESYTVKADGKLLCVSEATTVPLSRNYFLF

Staphylococcus aureus = system: Staphylococcus aureus; design: method as in Du et al. (supplement ref 5); conditions: ref Du et al. (supplement ref 5); cited from earlier work
RAW264.7 cells = conditions: murine macrophage RAW264.7; potency similar to that in Neuro-2a; cited from earlier work
in vitro = conditions: mouse
Description: as §3, §4

C=CC(C)(C)c1[nH]c2cc(CC=C(C)C)ccc2c1/C=C1\NC(=O)[C@]2(C[C@H](C)C=C[C@@H]2/C=C/c2c(O)cc(CC=C(C)C)c(O)c2C=O)NC1=O [Compound 1a, (+)-Cryptoechinuline B]
DPPH Scavenger Activity IC50 [1]: weak | IC50 [1]: 122 ± 7.1 µM | increase in viability of 6-OHDA-treated cells (Neuro-2a cells [2]): neuroprotective activity | viability at 10 µM (Neuro-2a cells [2]; Mus musculus, N2a, read-out: increase in viability of 6-OHDA-treated cells): 40.7% | IC50 [3]: > 100 µM | increase in viability of rotenone-treated cells (Neuro-2a cells [4]): neuroprotective activity; also recorded: significant increases | increase in viability of PQ-treated cells (Neuro-2a cells [5]): neuroprotective activity

C=CC(C)(C)c1[nH]c2cc(CC=C(C)C)ccc2c1/C=C1\NC(=O)[C@@]2(C[C@@H](C)C=C[C@H]2/C=C/c2c(O)cc(CC=C(C)C)c(O)c2C=O)NC1=O [Compound 1b, (−)-Cryptoechinuline B]
DPPH Scavenger Activity IC50 [1]: weak | IC50 [1]: 118 ± 4.7 µM | increase in viability of 6-OHDA-treated cells (Neuro-2a cells [2]): inactive | IC50 [3]: > 100 µM | increase in viability of rotenone-treated cells (Neuro-2a cells [4]): inactive | increase in viability of PQ-treated cells (Neuro-2a cells [5]): protected

C=CC(C)(C)c1[nH]c2ccccc2c1C=C1NC(=O)C2(CC(C)C=CC2C=Cc2c(O)cc(CC=C(C)C)c(O)c2C=O)NC1=O (centres unmarked) [Compound 2, cryptoechinuline D]
increase in viability of 6-OHDA-treated cells (Neuro-2a cells [2]): did not show any cytoprotective effects | DPPH Scavenger Activity IC50 [6]: strong | IC50 [6]: 23.6 µM | IC50 [3]: > 100 µM | increase in viability of rotenone-treated cells (Neuro-2a cells [4]): did not show any cytoprotective effects | increase in viability of PQ-treated cells (Neuro-2a cells [5]): did not show any cytoprotective effects

C=CC(C)(C)c1[nH]c2c(CC=C(C)C)cc(CC=C(C)C)cc2c1C[C@@H]1NC(=O)[C@H](C)NC1=O [Compound 3, echinulin]
IC50 [7]: 63.2 µM | IC50 [8]: 41.7 µM | IC50 [9]: 25.9 µM | ROS Level, % of Control, Paraquat (PQ) (Neuro-2a cells [10]): 90.3 ± 2.2 % of Control | IC50 [11]: 29.8 µM | IC50 [6]: 29.9 µM | antibacterial activity against Staphylococcus aureus (Staphylococcus aureus): antibacterial activity | IC50 [3]: > 100 µM | increase in viability of rotenone-treated cells (Neuro-2a cells [4]): inactive | increase in viability of PQ-treated cells (Neuro-2a cells [5]): inactive

C=CC(C)(C)c1[nH]c2ccccc2c1/C=c1\[nH]c(=O)c(=C)[nH]c1=O [Compound 4, neoechinulin B]
ROS Level, % of Control, Paraquat (PQ) (Neuro-2a cells [10]): 101.8 ± 7.6 % of Control | IC50 [6]: 34 µM | cytotoxicity against RAW264.7 cells (RAW264.7 cells): cytotoxic | IC50 [3]: 50.9 µM | increase in viability of rotenone-treated cells (Neuro-2a cells [4]): cytoprotective activity; also recorded: significant increases | increase in viability of PQ-treated cells (Neuro-2a cells [5]): inactive

C=CC(C)(C)c1[nH]c2cc(CC=C(C)C)ccc2c1/C=c1\[nH]c(=O)c(=C)[nH]c1=O [Compound 5, neoechinulin C]
ROS Level, % of Control, Paraquat (PQ) (Neuro-2a cells [10]): 97.4 ± 2.8 % of Control | IC50 [6]: 31.1 µM | IC50 [3]: 40.6 µM | increase in viability of rotenone-treated cells (Neuro-2a cells [4]): not active | increase in viability of PQ-treated cells (Neuro-2a cells [5]): protected

C=CC(C)(C)c1[nH]c2ccccc2c1/C=C1\NC(=O)C(=O)NC1=O [Compound 6, neoechinulin E]
ROS Level, % of Control, Paraquat (PQ) (Neuro-2a cells [10]): 94.1 ± 2.9 % of Control | IC50 [6]: 46 µM | IC50 (in vitro): > 100 µM | increase in viability of rotenone-treated cells (Neuro-2a cells [4]): significant increases

C=CC(C)(C)c1[nH]c2cc(CC=C(C)C)ccc2c1/C=C1\NC(=O)C(=O)NC1=O [Compound 7, neoechinulin]
IC50 [7]: 49.9 µM | IC50 [8]: 63.8 µM | IC50 [9]: 38.9 µM | IC50 [1]: 62.6 ± 1.1 µM | IC50 [3]: > 100 µM | increase in viability of rotenone-treated cells (Neuro-2a cells [4]): not active | increase in viability of PQ-treated cells (Neuro-2a cells [5]): inactive

CC(=O)O[C@@]12CO[C@@H]1C[C@H](O)[C@@]1(C)C(=O)[C@H](O)C3=C(C)[C@@H](OC(=O)[C@H](O)[C@@H](NC(=O)OC(C)(C)C)c4ccccc4)C[C@@](O)([C@@H](OC(=O)c4ccccc4)[C@H]21)C3(C)C [Docetaxel, reference compound]
IC50 [9]: 0.004 µM

NC(N)=S [Thiourea, reference compound]
IC50 ([11]; cell-free, 0.2-100.0 µM tested, pH 7.3-7.5, read-out: urease inhibition IC50): 23 µM
